The target in assay [1] is primary human dermal fibroblasts. In words: SRB binding assay, cytostasis, 48 h treatment. In kind it is cell-based. The note with it: read-out: Fibroblast SRB IC50. Summed up:
(§1)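 Ovarian cancer A2780 cells and primary human dermal fibroblasts treated 48 h, TCA-fixed, SRB-stained, absorbance at 540 nm relative to vehicle. IC50 from four-parameter fit when a plateau was reached or inhibition exceeded 90%; otherwise percent inhibition at 100 μM.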
(In general: The SRB assay estimates cell density from bound dye.)

Assay [2] deals with A2780 cells. In words: SRB binding assay, cytostasis, 48 h treatment. In kind it is cell-based. Summed up:
as §1

For assay [3], the system named is vancomycin-resistant Enterococcus (VRE) clinical isolates. The assay can be described thus: Broth microdilution MIC, clinical VRE isolates. Particulars: 24 h, 0.08–40 μM. In kind it is cell-based, E. faecium. In outline: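 S. aureus and E. faecium clinical isolates (Debrecen, 2018–2020; MALDI-TOF-identified) tested by EUCAST broth microdilution in Mueller–Hinton broth at 5.0 × 10^5 CFU/mL across 0.08–40 μM (twofold). After 24 h at 37 °C, visually read; MIC is the lowest concentration giving ≥50% inhibition versus growth control. At least two runs in duplicate.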

Assay [4] relates to ID8 cells. In words: SRB assay, 48 h. In kind it is cell-based. As for the experimental part: (§2) Figure 8 Assessment of free ligand 3a and complex Ru-3a for cytostatic activity in multiple carcinomas. […] Cells were treated with the compounds in the concentrations indicated for 48 h; then, an SRB assay was performed. Data are represented as average ± SD from three biological replicates; individual assays were performed in duplicates. Values were normalized for vehicle-treated cells; absorbance for vehicle-treated cells equals 1. Statistical significance was assessed using a one-way ANOVA test comparing all values to the lowest concentration of a compound. Before the test, normality was assessed using the Shapiro–Wilk test, and the post hoc test was chosen accordingly. […] An SRB assay measures protein content of cells in correlation with the cell number in an assay well and can therefore be used to assess cell proliferation or long-term cytostasis. Cells were seeded in 96-well plates the day before the assay. Cells were treated with the compounds for 48 h. Then medium was removed, and cells were fixed with 10% trichloroacetic acid. […] Stained cells were washed in 1% acetic acid 5 times; acetic acid was removed, and cells were left to dry. Protein-bound SRB was released by adding 100 μL 10 mM Tris base. Plates were measured in a plate photometer (Thermo Scientific Multiscan GO spectrophotometer, Waltham, MA, USA) at 540 nm. On each plate, wells were designed to contain vehicle-treated cells. […] Statistical analysis was performed using version 8.0.1 of GraphPad Prism. Values were tested for normal distribution using the Shapiro–Wilk normality test. […] In other cases, the percentage of inhibition was taken for the maximum concentration (100 μM).

The test system of assay [5] is U251 cells. The assay can be described thus: SRB assay, 48 h. In kind it is cell-based. As for the experimental part:
as §2

The test system of assay [6] is MCF7 cells. In words: SRB assay, 48 h. In kind it is cell-based. As for the experimental part:
as §2

Assay [7] relates to Capan2 cells. The assay can be described thus: SRB assay, 48 h. In kind it is cell-based. As for the experimental part: as §2
The test system of assay [8] is Staphylococcus aureus (ATCC29213). In words: Broth microdilution MIC, reference strain. In kind it is cell-based. Particulars: 24 h, 0.08–40 μM, read-out: MIC S. aureus ATCC 29213. In outline:
(§3)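 EUCAST broth microdilution in Mueller–Hinton broth, inoculum 5.0 × 10^5 CFU/mL, compounds at 0.08–40 μM (twofold dilutions), 24 h at 37 °C. Plates read visually; MIC taken as lowest concentration giving ≥50% inhibition versus drug-free growth control.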
For orientation: Broth dilution looks for growth in wells or tubes with falling amounts of substance.

The subject of assay [9] is Enterococcus faecalis (ATCC29212). The assay can be described thus: Broth microdilution MIC, reference strain. The note with it: 24 h, tested range 0.08–40 μM, read-out: MIC E. faecalis ATCC 29,212. In kind it is cell-based. In outline: as §3
The test system of assay [10] is A2780 cells. The assay can be described thus: MTT reduction assay, early toxicity, 4 h treatment. In kind it is cell-based. In outline: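 Cells plated the day before, exposed to compounds for 4 h, then MTT 0.5 mg/mL for 40–60 min at 37 °C; reduced dye dissolved in DMSO, read at 540 nm relative to vehicle wells. IC50 by four-parameter fit; otherwise % inhibition at 100 μM.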
Background: Formazan colour is commonly taken as a measure of viable cells.

Molecules are shown by their SMILES. Read-outs that look alike come from different tables or passages of the source.

As a reminder, the IC50 is the midpoint of a concentration-inhibition curve. The term MIC denotes the smallest concentration in the dilution series that meets the test's criterion for growth inhibition. Turning to `Cc1ccc(C(C)C)cc1.F[P-](F)(F)(F)(F)F.N[C@@H]1[C@@H](OCc2ccccc2)[C@H](OCc2ccccc2)[C@@H](COCc2ccccc2)O[C@H]1c1ccccn1.[Cl][Ru+]` [Ru-3a], the IC50 in [1] amounted to 9.62 µM; in assay [2], 1.86 µM; in [4], 2.54 µM; in [5], 3.97 µM; in assay [6] it was 2.3 µM; in assay [7], 2.25 µM. Besides, in [10], it took 8.02 µM to reach half-maximal inhibition (IC50). Also, in assay [2] (up to 100 μM, ND = not detectable), the “A2780 SRB Max Inhibition” value was over 90%. Also, the MIC in [3] (clinical isolate 25,051 VRE, read-out: MIC 25,051 VRE) is 5 µM; in assay [3] (clinical isolate 25,498 VRE, read-out: MIC 25,498 VRE), 5 µM; in assay [3] (clinical isolate 27,085 VRE, read-out: MIC 27,085 VRE), 5 µM; in assay [8], 5 µM; in [9], 10 µM. Besides, the “ID8 SRB Max Inhibition” value in [4] is given as over 90%. For the same molecule, the “U251 SRB Max Inhibition” value in assay [5] is reported as over 90%. Further, in assay [6], the “MCF7 SRB Max Inhibition” value was over 90%. Besides, the “Capan2 SRB Max Inhibition” value in [7] is on record as over 90%. Besides, the “A2780 MTT Max Inhibition” value in [10] (inhibition at maximum concentration (100 μM) where no plateau, ND = not detectable) is reported as over 90%.

Source of the values: article PMC10096180, “Half-Sandwich Type Platinum-Group Metal Complexes of C-Glucosaminyl Azines: Synthesis and Antineoplastic and Antimicrobial Activities” (Molecules, 2023).
